Common to all, as to test: inhibition of tumour cell growth, NCI panel, 48 h
Test [1] concerns 786-0 renal.
Test [2] relates to DLD-1 colon.
For test [3], the system named is DMS 114 small cell lung.
Test [4] relates to HCT-116 colon.
Test [5] deals with HOP-18 NSCLC.
Test [6] has as its system KM20L2 colon.
The test system of test [7] is LXFL 529 NSCLC.
The subject of test [8] is M19-MEL melanoma.
Test [9] has as its system SF-539 CNS.
For test [10], the system named is SNB-78 CNS.
In test [11] the test system is SR leukemia.
For test [12], the system named is XF 498 CNS.
In test [13] the test system is HS 578T breast.
Test [14] has as its system MDA-MB-231 breast.

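The compound was tested at five concentrations on cells cultured in 96-well plates, with a 48-hour exposure period. Here, GI50 denotes the concentration required for 50% inhibition of growth. Definition used: TGI = concentration required for complete inhibition of growth.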

On to `CC[n+]1c(/C=C/c2ccc(N(CCCl)CCCl)cc2)ccc2cc(Br)ccc21`, for which the TGI was 10.1 µM in [1]; 16.1 µM in test [2]; 15.2 µM in test [3]; 482 µM in [4]; 19.6 µM in test [5]; 11.9 µM in [6]. Moreover, the TGI in test [7] stood at 1.99 µM; in test [9], 4.29 µM; in test [10] it was 15.4 µM; in test [12] it was 1.18 µM. In addition, the GI50 in test [8] was 134 µM; in test [11] it was 132 µM.
`COc1cccc(/C=N/[N-]C(N)=O)c1[O-].[OH3+].[Zn+2]`: the TGI in test [1], in [4], in [6], in test [9] and in test [11] was above 100 µM throughout.
As for `COc1ccc(N=C/C=C/C(=C/COC(C)=O)OC(C)=O)cc1`, the TGI in test [1] was 90 µM; in test [4], 28.7 µM; in test [13], above 100 µM; in [14], 65.3 µM; in [9] it was above 100 µM; in [11] it was above 100 µM.
`Cc1oc2nc(N(C)C)n3c(C)nnc3c2c1C`: the TGI in [1], in test [4], in test [13], in test [14], in [9] and in test [11] was above 100 µM throughout.
`N=C1SCCS1`: the TGI in test [1], in test [2], in test [3], in test [4], in [6] and in test [7] was above 100 µM throughout. For the same compound, the TGI in test [8], in test [9], in test [10] and in test [12] was above 100 µM throughout.
Regarding `Cc1ccc2c(c1)C(=O)c1ccc(C)nc1C2=O`, the TGI in [1] was above 100 µM; in test [4], 42.1 µM; in [13], above 100 µM; in test [14] it was above 100 µM; in [9], 68.5 µM; in [11] it was above 100 µM.
With `Nc1nc(Cl)c(N)c(NCC2(CO)CC(O)C2)n1` (stereo not given), the TGI in [1], in test [4], in [13], in test [14], in [9] and in test [11] was above 100 µM throughout.
For the compound `c1cc(-c2ccc(Oc3ccc(-c4ccncc4)cc3)cc2)ccn1`, the TGI in test [1] is above 100 µM; in [4] it was above 100 µM; in [13], above 69.9 µM; in [14], above 100 µM; in test [9], above 100 µM; in test [11] it was 9.97 µM.
On to `COC(=O)c1c(OC(C)=O)ccc2c1c1c(n2Cc2ccccc2)C(=O)c2ccccc2C1=O`, for which the TGI in test [1] came to 52.4 µM; in test [4] it was 34.2 µM; in test [13], 48.3 µM; in test [14], 36.8 µM; in [9], 33.7 µM; in test [11] it was 64.5 µM.
Regarding `COC(=O)[C@@H](COC(=O)/C=C/c1ccc(OC(C)=O)c(OC(C)=O)c1)NC(=O)/C=C/c1ccc(OC(C)=O)c(OC(C)=O)c1`, the TGI in test [1] was 73.7 µM; in test [4], 39.5 µM; in test [13], 94.6 µM; in [14], 82.4 µM; in test [9] it was 74.7 µM; in test [11], above 100 µM.
As for `[N-]=[N+]=NC1=C(N=[N+]=[N-])c2cccc3cccc(c23)C1=O`, the TGI in test [1], in [4], in test [13], in [14], in [9] and in test [11] was above 100 µM in each case.
`CN(N=O)C(N)=NC(=O)c1ccccc1`: the TGI in [1], in test [4], in test [13], in test [14], in test [9] and in [11] was above 100 µM throughout.
Take `COc1ccc2[nH]c3c(c2c1)CCc1ccccc1-3`: the TGI is above 100 µM in test [1]; above 100 µM in test [4]; 37.4 µM in [13]; 76.1 µM in [14]; 32.1 µM in test [9]; above 100 µM in test [11].
Consider `O=Cc1cc(O)ccc1Br`, for which the TGI in test [1] was above 78.3 µM; in [4], 47.8 µM; in test [13], above 100 µM; in test [14] it was above 100 µM; in test [9] it was 60.5 µM; in test [11], 17.3 µM.
`C[N+](C)(C)C(Cc1c[nH]c(=S)[nH]1)C(=O)O` (stereo not given): the TGI in [1], in [4], in test [13], in test [14], in test [9] and in test [11] was above 100 µM each time.
Take `N/C(=N/O)c1cn(C2OC(CO)C(O)C2O)c2ncnc(NO)c12` (stereo not given): the TGI was above 100 µM in test [1]; above 77.4 µM in [4]; above 100 µM in [13]; 5.05 µM in test [14]; 5.03 µM in test [9]; 0.262 µM in test [11].
On to `CCCN=C1S/C(=C/c2ccc(OC)c(OC)c2)C(=O)N1c1ccccc1`, for which the TGI was 50.2 µM in test [1]; above 100 µM in test [4]; above 100 µM in test [13]; 92.6 µM in test [14]; 30.2 µM in test [9]; above 100 µM in test [11].
Turning to `COc1cc([C@@H]2c3cc4c(cc3[C@@H](N=Cc3ccc(C(=O)O[C@H]5C[C@H]6OC[C@@]6(OC(C)=O)[C@H]6[C@H](OC(=O)c7ccccc7)[C@]7(O)C[C@H](OC(=O)[C@H](OC(=O)c8ccc(C=N[C@@H]9c%10cc%11c(cc%10[C@@H](c%10cc(OC)c(O)c(OC)c%10)[C@H]%10C(=O)OC[C@@H]%109)OCO%11)cc8)[C@@H](NC(=O)c8ccccc8)c8ccccc8)C(C)=C([C@@H](OC(C)=O)C(=O)[C@]56C)C7(C)C)cc3)C3COC(=O)C32)OCO4)cc(C)c1O` (stereo not given in full), the TGI is above 50 µM in [1]; above 50 µM in test [4]; above 50 µM in test [13]; above 43.4 µM in [14]; above 37.8 µM in test [9]; above 50 µM in test [11].
Regarding `COc1cc(/C=C2\N=C(c3ccccc3)N(/N=C/c3cc4cc(C)ccc4nc3Cl)C2=O)ccc1O`, the TGI in [1] was above 100 µM; in [4], 51.8 µM; in [13], above 100 µM; in test [14], above 100 µM; in test [9], above 100 µM; in [11], 47.1 µM.
In the case of `COC(=O)C1CCCCCCCCCCC12SCCCS2` (stereo not given), the TGI came out at 28.5 µM in [1]; 30.2 µM in [4]; 90.5 µM in test [13]; 45.2 µM in test [14]; 47.4 µM in test [9]; 34.9 µM in test [11].
As to `ClCc1nc2cc(Cl)ccc2o1`, the TGI was 3.34 µM in test [1]; 20.4 µM in [4]; above 61.5 µM in [13]; 10.2 µM in test [14]; 17.8 µM in test [9]; above 37 µM in test [11].
`O=C(N/N=C1\CCc2ccccc21)N/N=C1\CCc2ccccc21`: the TGI in test [1] was above 100 µM; in [4] it was above 100 µM; in test [13] it was above 100 µM; in test [14], 29.4 µM; in test [9], above 100 µM; in test [11], above 100 µM.
Turning to `CC(=O)NC1C(OCc2ccccc2)OC(CO)C(O)C1OCC(=O)NC(C)C(=O)NC(CCC(=O)Nc1ccc2c(c1)CN1C(=O)c3ccccc3C1=N2)C(N)=O` (stereo not given), the TGI in test [1], in test [4], in [13], in test [14], in [9] and in test [11] was above 100 µM each time.
Consider `c1ccc(NC2(c3nnnn3C3CCCCC3)CCNCC2)cc1`, for which the TGI was 28.6 µM in test [1]; 28.5 µM in [4]; 32.2 µM in test [13]; above 100 µM in [14]; 30 µM in test [9]; 36.1 µM in test [11].
On to `CC(C)=CCc1c(O)c(CC=C(C)C)c2oc3c(c(=O)c2c1O)C(C=C(C)C)Oc1cc(O)ccc1-3` (stereo not given), for which the TGI in [1] came out at 19.5 µM; in test [4] it was 13.2 µM; in test [13], 43.8 µM; in test [14] it was 25.6 µM; in [9] it was 25.5 µM; in test [11] it was 8.29 µM.
For `OCC1OC(NC(=S)NCSCCC(F)(F)C(F)(F)C(F)(F)C(F)(F)C(F)(F)C(F)(F)F)C(O)C(O)C1O` (stereo not given), the TGI in test [1] was above 100 µM; in [4], above 100 µM; in [13], above 100 µM; in test [14], above 100 µM; in test [9], 47.2 µM; in test [11] it was above 100 µM.
As to `O=C(c1no[n+]([O-])c1C(=O)c1csc2ccccc12)c1csc2ccccc12`, the TGI in [1] was 0.713 µM; in [4], 25.9 µM; in [13], above 57.3 µM; in test [14], 18.4 µM; in [9], 8.36 µM; in [11], 0.27 µM.
As to `CC(C)c1cc(C(C)C)c(P2(=O)CC3C(Cl)(Cl)C3(C)C2)c(C(C)C)c1` (stereo not given), the TGI in test [1] worked out at 14.6 µM; in test [4], 20.2 µM; in test [13], 47.8 µM; in test [14], 24.8 µM; in test [9], 27.1 µM; in [11], 3.75 µM.
Consider `CSC(=S)Nc1cc(C)ccn1`, for which the TGI in test [1] is above 100 µM; in test [4], above 100 µM; in test [13], above 100 µM; in [14] it was 88.8 µM; in [9], above 100 µM; in test [11], above 100 µM.
With `CC1C2CC(CC2=O)C1(C)C` (stereo not given), the TGI in test [1], in test [4], in test [13], in test [14], in test [9] and in test [11] was above 100 µM in each case.
Consider `O=C(O)c1ccccc1/C=C1\Cc2ccc3c(c2C1=O)CCCC3`, for which the TGI in test [1] is above 100 µM; in test [4] it was 80.4 µM; in [13], 81.2 µM; in test [14], 62.3 µM; in test [9], 81.6 µM; in test [11] it was 61 µM.
Take `COC(=O)/C=C1/OC(c2ccccc2)=CC1=O`: the TGI was 27.9 µM in test [1]; 33.2 µM in test [4]; 65.9 µM in [13]; 31.4 µM in test [14]; 39.8 µM in test [9]; above 60.8 µM in [11].
`C=C1C(=O)OC2C3C(=C)[C@@H](OC(C)=O)CC3C(C)=CC(OC(=O)C(C)(O)C(C)OC(C)=O)[C@@H]12` (stereo not given in full): the TGI worked out at 24.2 µM in test [1]; 17.9 µM in [4]; 40.9 µM in [13]; 34.1 µM in test [14]; 31.9 µM in [9]; 68.9 µM in test [11].
In the case of `O=C1NC(c2ccccc2)C1N(Cc1ccccc1)Cc1ccccc1` (stereo not given), the TGI in test [1], in [4], in test [13], in test [14], in test [9] and in [11] was above 100 µM each time.
For `CC1(c2nc3ccccc3[nH]2)CCC(CO)C(C)(C)O1` (stereo not given), the TGI is above 100 µM in test [1]; above 100 µM in test [4]; above 100 µM in [13]; above 100 µM in test [14]; above 100 µM in [9]; 33.7 µM in test [11].
Turning to `COc1ccc(-n2c(-c3ccccc3)cc(-c3cccs3)c2-c2cccs2)cc1`, the TGI in test [1], in [4], in test [13], in test [14], in [9] and in test [11] was above 100 µM throughout.
